Source: article PMC7028811, “Biopharmaceutical Understanding of Excipient Variability on Drug Apparent Solubility Based on Drug Physicochemical Properties: Case Study—Hypromellose (HPMC)” (The AAPS Journal, 2020)
≈ marks a conversion by molar mass, not a printed value. Like-named read-outs stand apart in the source and are kept apart here. Marks after values point to notes of the source that are not given here.

Key:
[1] = Relative effect (RE) of HPMC brands on drug apparent solubility, shake-flask with drug/excipient physical mixtures; type: physicochemical; conditions: FaSSIF-V2
Method: (§1) Compendial media (0.1 N HCl pH 1, phosphate buffer pH 6.8) were prepared according to the method described in the European Pharmacopoeia ([43]). Fasted State Simulated Gastric Fluid (FaSSGF) and Fasted State Simulated Intestinal Fluid (FaSSIF-V2) were prepared as described by Jantratid et al. ([44]).
Drug solubility studies in the absence and presence of excipient were performed in triplicate using the shake-flask method ([45]). Drug excess amount and 2% w/w or 5% w/w of each excipient were weighed and placed in centrifuge tubes. […] The physical mixtures were vortexed for 3 min. Five millilitres of each medium was added in the tubes and the samples were placed in a shaking water bath (37 °C, 200 strokes per minute (spm)). […] Filter adsorption studies were prior performed in triplicate for each drug. […] Filtered samples were further diluted (if needed) with the corresponding medium and analysed by HPLC (Supplementary Table I). Analytical procedures for drug quantification in the samples were modifications of already published methods. Drug quantification was made based on calibration curves. […] As drug solubility can be influenced by the changes in the pH of solutions by presence of dissolved drug ([38]), the pH of samples after the completion of each experiment was measured. Drug solubility was calculated based on the sample drug concentration measured.

[2] = cited from earlier work; for Solubility (BCS classification): based on the compound's BCS classification; for Lipophilicity (log P): experimental values
[3] = Shake-flask drug solubility in absence of excipient (reference solubility); type: physicochemical; conditions: for solubility at 0.5 h: 37 °C, read-out: Solubility of pure drug
Method: as §1
Drug solubility studies in the absence and presence of excipient were performed in triplicate using the shake-flask method ([45]). Drug excess amount and 2% w/w or 5% w/w of each excipient were weighed and placed in centrifuge tubes. […] The physical mixtures were vortexed for 3 min. Five millilitres of each medium was added in the tubes and the samples were placed in a shaking water bath (37 °C, 200 strokes per minute (spm)). […] Filter adsorption studies were prior performed in triplicate for each drug. […] Filtered samples were further diluted (if needed) with the corresponding medium and analysed by HPLC (Supplementary Table I). Analytical procedures for drug quantification in the samples were modifications of already published methods. Drug quantification was made based on calibration curves. Standards were formulated from concentrated stock solutions consisting of drug dissolved in MeOH. As drug solubility can be influenced by the changes in the pH of solutions by presence of dissolved drug ([38]), the pH of samples after the completion of each experiment was measured. Drug solubility was calculated based on the sample drug concentration measured.

[4] = Theoretical % of drug ionized (Henderson-Hasselbalch equation at the pH of each medium); type: physicochemical

SMILES | Solubility (BCS classification) [2] | Lipophilicity (log P) [2] | pKa [2] | further results
NC(=O)N1c2ccccc2C=Cc2ccccc21 [CBZ, carbamazepine] | Low ([30]) | 2.45 ([29]) |  | Relative effect (RE) on drug apparent solubility ([1]; all the studied HPMC brands, 24 h): approximately 60%; pKa ([2]; ref DrugBank): Neutral (pKa=15)^a; solubility at 0.5 h ([3]; pH 1.6, fassgf or other biorelevant, thermodynamic from solid, FaSSGF, 0.5 h): 387 µg/mL (≈ 1640 µM); solubility at 0.5 h ([3]; pH 6.5, thermodynamic from solid, FaSSIF-V2, 0.5 h): 307 µg/mL (≈ 1300 µM)
OCCN(CCO)c1nc(N2CCCCC2)c2nc(N(CCO)CCO)nc(N3CCCCC3)c2n1 [DPL, dipyridamole] | Low ([38]) |  |  | % of drug ionized ([4]; FaSSIF-V2): 34%; % of drug ionized ([4]; phosphate buffer pH 6.8): 20.1%; Effect of HPMC presence on drug apparent solubility [1]: did not affect
CC(C)Cc1ccc(C(C)C(=O)O)cc1 (centres unmarked) [IBU, Ibuprofen] |  | 4.00 ([33]) |  | 
CCC(C)n1ncn(-c2ccc(N3CCN(c4ccc(OCC5COC(Cn6cncn6)(c6ccc(Cl)cc6Cl)O5)cc4)CC3)cc2)c1=O (centres unmarked) [ITZ, itraconazole] | Low ([40]) | 6.20 ([39]) | Weak base (pKa=4.5) ([39]) | solubility at 24 h ([3]; aqueous buffer, thermodynamic from solid, Phosphate buffer pH 6.8, 37 °C, mean ± SD, n = 3): < 0.015 µg/mL
CC(=O)Nc1ccc(O)cc1 [PRC, paracetamol] |  | 0.20 ([28]) | Neutral (pKa=9.38) ([28]) | 
